Assay results as given in patent publication US9771341B2, “Piperazine carbamates and methods of making and using same” (Abide Therapeutics, Inc., priority 2015, dated 2017).

Assays:
FAAH [1] = biological target: T1, FAAH (Mus musculus, UniProt O08914); test: In vitro competitive activity-based protein profiling (mouse), FAAH; assay type: biochemical; details: for inhibition at 1 µM: mouse proteome, in vitro; for IC50: mouse brain membrane fraction or cell lysates, 30 min preincubation at 37° C, FP-Rh probe
T1 construct: Proteomes (mouse brain membrane fraction or cell lysates); from tissue; host or cells: mouse brain membrane fraction (or unspecified cell lysates)
T1 sequence (O08914 1-579): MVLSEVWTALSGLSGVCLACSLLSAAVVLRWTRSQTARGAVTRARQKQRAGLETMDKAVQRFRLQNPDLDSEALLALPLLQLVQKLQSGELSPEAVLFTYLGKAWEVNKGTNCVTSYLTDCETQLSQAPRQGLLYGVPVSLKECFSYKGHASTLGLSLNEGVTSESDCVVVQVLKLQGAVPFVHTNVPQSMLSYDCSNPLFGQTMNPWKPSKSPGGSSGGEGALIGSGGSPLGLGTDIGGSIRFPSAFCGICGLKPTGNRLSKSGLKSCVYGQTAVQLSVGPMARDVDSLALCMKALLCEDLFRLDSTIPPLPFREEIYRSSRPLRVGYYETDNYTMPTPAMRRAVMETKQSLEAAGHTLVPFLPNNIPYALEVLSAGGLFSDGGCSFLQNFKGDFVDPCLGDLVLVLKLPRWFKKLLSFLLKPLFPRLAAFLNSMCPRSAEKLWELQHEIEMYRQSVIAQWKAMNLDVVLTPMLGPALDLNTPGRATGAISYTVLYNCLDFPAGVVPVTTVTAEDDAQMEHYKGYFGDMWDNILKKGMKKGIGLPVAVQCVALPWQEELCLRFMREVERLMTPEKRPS
Outline: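 Mouse brain membrane fraction or cell lysates (1.0 mg/mL protein) preincubated with inhibitors 30 min at 37° C, then FP-Rh probe 30 min at 37° C. SDS-PAGE fluorescence band intensity gave FAAH activity.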

ABHD6 [2] = biological target: T2, ABHD6 (Mus musculus, UniProt Q8R2Y0); test: In vitro competitive activity-based protein profiling (mouse), ABHD6; assay type: biochemical; details: for inhibition at 1 µM: mouse proteome, in vitro, read-out: % Inhibition at 1 μM ABHD6; for IC50: mouse brain membrane fraction or cell lysates, 30 min preincubation at 37° C, FP-Rh probe
T2 construct: Proteomes (mouse brain membrane fraction or cell lysates); from tissue; host or cells: mouse brain membrane fraction (or unspecified cell lysates)
T2 sequence (Q8R2Y0 1-336): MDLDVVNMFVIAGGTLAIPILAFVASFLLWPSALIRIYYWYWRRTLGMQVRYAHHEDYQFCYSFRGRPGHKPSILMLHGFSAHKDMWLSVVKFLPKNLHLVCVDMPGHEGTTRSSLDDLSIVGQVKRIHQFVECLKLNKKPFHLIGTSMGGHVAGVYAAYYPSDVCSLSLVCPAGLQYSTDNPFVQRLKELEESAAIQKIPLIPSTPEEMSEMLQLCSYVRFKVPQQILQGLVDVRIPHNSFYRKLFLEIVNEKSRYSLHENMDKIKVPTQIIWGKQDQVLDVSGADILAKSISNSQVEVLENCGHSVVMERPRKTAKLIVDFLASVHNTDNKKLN
Protocol: (§1) In Vitro Competitive Activity-Based Protein Profiling (Mouse).
(§2) Proteomes (mouse brain membrane fraction or cell lysates) (50 μL, 1.0 mg/mL total protein concentration) were preincubated with varying concentrations of inhibitors at 37° C. After 30 min, FP-Rh (1.0 μL, 50 μM in DMSO) was added and the mixture was incubated for another 30 min at 37° C. Reactions were quenched with SDS loading buffer (50 μL-4×) and run on SDS-PAGE.

MAGL [3] = biological target: T3, MAGL (Mus musculus, UniProt O35678); test: Mouse brain proteomes from inhibitor treated mice, MAGL; assay type: in vivo; details: 5 mg/kg oral gavage, C57Bl/6J mice, brain proteome 4 h after administration
T3 construct: Proteomes (mouse brain membrane fraction or cell lysates); from tissue; host or cells: mouse brain membrane fraction (or unspecified cell lysates)
T3 sequence (O35678 1-303): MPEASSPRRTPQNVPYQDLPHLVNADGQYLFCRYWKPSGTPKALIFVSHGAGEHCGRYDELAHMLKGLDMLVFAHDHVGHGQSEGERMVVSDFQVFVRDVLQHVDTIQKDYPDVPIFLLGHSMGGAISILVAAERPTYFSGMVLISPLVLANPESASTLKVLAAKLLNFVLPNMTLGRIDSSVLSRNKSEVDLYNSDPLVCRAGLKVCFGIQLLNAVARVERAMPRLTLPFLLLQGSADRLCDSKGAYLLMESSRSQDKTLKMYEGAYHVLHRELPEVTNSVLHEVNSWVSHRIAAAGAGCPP
Protocol: (§3) Preparation of Mouse Brain Proteomes from Inhibitor Treated Mice.
(§4) Inhibitors were administered to wild-type C57Bl/6J by oral gavage in a vehicle of polyethylene glycol.

FAAH [4] = biological target: T1, FAAH; test: Mouse brain proteomes from inhibitor treated mice, FAAH; assay type: in vivo; details: 5 mg/kg oral gavage, C57Bl/6J mice, brain proteome 4 h after administration
Protocol: as §3
Inhibitors were administered to wild-type C57Bl/6J by oral gavage in a vehicle of polyethylene glycol. Each animal was sacrificed 4 h following administration and brain proteomes were prepared and analyzed according to previously established methods (See Niphakis, M. J., et al. (2011) ACS Chem. Neurosci. and Long, J. Z., et al. Nat. Chem. Biol. 5:37-44)

MAGL [5] = biological target: T3, MAGL; test: In vitro competitive activity-based protein profiling (mouse), MAGL; assay type: biochemical; details: for inhibition at 1 µM: mouse proteome, in vitro, read-out: % Inhibition at 1 μM MAGL; for IC50: mouse brain membrane fraction or cell lysates, 30 min preincubation at 37° C, FP-Rh probe
Protocol: as §1, §2

ABHD6 [6] = biological target: T2, ABHD6; test: Mouse brain proteomes from inhibitor treated mice, ABHD6; assay type: in vivo; details: 5 mg/kg oral gavage, C57Bl/6J mice, brain proteome 4 h after administration
Protocol: as §3, §4

Compound | inhibition at 1 µM (FAAH [1]) | IC50 (FAAH [1]) | inhibition at 1 µM (ABHD6 [2]) | IC50 (ABHD6 [2]) | inhibition at 5 mg/kg (MAGL [3]) | inhibition at 5 mg/kg (FAAH [4]) | inhibition at 1 µM (MAGL [5]) | IC50 (MAGL [5]) | inhibition at 5 mg/kg (ABHD6 [6])
C#CCO[C@H]1CCN(c2cc(Cl)ccc2CN2CCN(C(=O)OC(C(F)(F)F)C(F)(F)F)CC2)C1 [Example 3, 1,1,1,3,3,3-hexafluoropropan-2-yl (S)-4-(4-chloro-2-(3-(prop-2-yn-1-yloxy)pyrrolidin-1-yl)benzyl)piperazine-1-carboxylate] |  | > 1000 nM |  | > 1000 nM | > 75% | < 25% |  | < 100 nM | < 25%
O=C(OC(C(F)(F)F)C(F)(F)F)N1CCN(Cc2ccc(Cl)cc2N2CC[C@H](CF)C2)CC1 [Example 4, 1,1,1,3,3,3-hexafluoropropan-2-yl (S)-4-(4-chloro-2-(3-(fluoromethyl)pyrrolidin-1-yl)benzyl)piperazine-1-carboxylate] | < 25% | > 1000 nM | < 25% | > 1000 nM | > 75% | < 25% | > 75% | < 100 nM | < 25%
O=C(OC(C(F)(F)F)C(F)(F)F)N1CCN(Cc2ccc(Cl)cc2N2CC[C@@H](N3CCCC3=O)C2)CC1 [Example 41, 1,1,1,3,3,3-hexafluoropropan-2-yl (R)-4-(4-chloro-2-(2-oxo-[1,3′-bipyrrolidin]-1′-yl)benzyl)piperazine-1-carboxylate] | < 25% | > 1000 nM | 25 to 75% | > 1000 nM | > 75% | < 25% | > 75% | < 100 nM | < 25%
O=C(OC(C(F)(F)F)C(F)(F)F)N1CCN(Cc2cccc(OC(F)(F)F)c2N2CC3CCC(C2)O3)CC1 [Example 31, 1,1,1,3,3,3-hexafluoropropan-2-yl 4-(2-(8-oxa-3-azabicyclo[3.2.1]octan-3-yl)-3-(trifluoromethoxy)benzyl)piperazine-1-carboxylate] | < 25% | > 1000 nM | < 25% | > 1000 nM | 25 to 75% | < 25% | > 75% | < 100 nM | < 25%
O=C(OC(C(F)(F)F)C(F)(F)F)N1CCN(Cc2ccc(Cl)cc2N2CC[C@H](N3CCCC3=O)C2)CC1 [Example 42, 1,1,1,3,3,3-hexafluoropropan-2-yl (S)-4-(4-chloro-2-(2-oxo-[1,3′-bipyrrolidin]-1′-yl)benzyl)piperazine-1-carboxylate] | < 25% | > 1000 nM | 25 to 75% | 100 to 1000 nM | > 75% | < 25% | > 75% | < 100 nM | < 25%
O=C(OC(C(F)(F)F)C(F)(F)F)N1CCN(Cc2ccc(C(F)(F)F)cc2N2C3CCC2COC3)CC1 [Example 58, 1,1,1,3,3,3-hexafluoropropan-2-yl 4-(2-(3-oxa-8-azabicyclo[3.2.1]octan-8-yl)-4-(trifluoromethyl)benzyl)piperazine-1-carboxylate] | < 25% | > 1000 nM |  |  |  | < 25% |  |  | 

The remaining lines, values ahead:

inhibition at 1 µM (FAAH [1]) | IC50 (FAAH [1]) | inhibition at 1 µM (ABHD6 [2]) | IC50 (ABHD6 [2]) | inhibition at 5 mg/kg (MAGL [3]) | inhibition at 5 mg/kg (FAAH [4]) | inhibition at 1 µM (MAGL [5]) | IC50 (MAGL [5]) | inhibition at 5 mg/kg (ABHD6 [6]) | Compound
< 25% | > 1000 nM | < 25% | > 1000 nM | 25 to 75% | < 25% | > 75% | < 100 nM | < 25% | O=C(OC(C(F)(F)F)C(F)(F)F)N1CCN(Cc2ccc(Cl)cc2N2CC[C@@H](N3CCCCC3=O)C2)CC1 [Example 43, 1,1,1,3,3,3-hexafluoropropan-2-yl (R)-4-(4-chloro-2-(3-(2-oxopiperidin-1-yl)pyrrolidin-1-yl)benzyl)piperazine-1-carboxylate]
< 25% | > 1000 nM | > 75% | 100 to 1000 nM | 25 to 75% | < 25% | > 75% | < 100 nM | < 25% | O=C(OC(C(F)(F)F)C(F)(F)F)N1CCN(Cc2ccc(Cl)cc2N2CC[C@@H](N3CCCS3(=O)=O)C2)CC1 [Example 45, 1,1,1,3,3,3-hexafluoropropan-2-yl (R)-4-(4-chloro-2-(3-(1,1-dioxidoisothiazolidin-2-yl)pyrrolidin-1-yl)benzyl)piperazine-1-carboxylate]
< 25% | > 1000 nM | 25 to 75% | > 1000 nM | < 25% | < 25% | > 75% | < 100 nM | < 25% | O=C(OC(C(F)(F)F)C(F)(F)F)N1CCN(Cc2ccc(C(F)(F)F)cc2N2CC3CN(C4CC4)CC3C2)CC1 (stereo not drawn) [Example 65, 1,1,1,3,3,3-hexafluoropropan-2-yl 4-(2-(5-cyclopropylhexahydropyrrolo[3,4-c]pyrrol-2(1H)-yl)-4-(trifluoromethyl)benzyl)piperazine-1-carboxylate]
< 25% | > 1000 nM | < 25% | > 1000 nM | > 75% | < 25% | > 75% | < 100 nM | < 25% | O=C(OC(C(F)(F)F)C(F)(F)F)N1CCN(Cc2ccc(C(F)(F)F)cc2N2CC[C@H](CF)C2)CC1 [Example 54, 1,1,1,3,3,3-hexafluoropropan-2-yl (S)-4-(2-(3-(fluoromethyl)pyrrolidin-1-yl)-4-(trifluoromethyl)benzyl)piperazine-1-carboxylate]
< 25% | > 1000 nM | < 25% | > 1000 nM | > 75% | < 25% | > 75% | < 100 nM | < 25% | O=C(OC(C(F)(F)F)C(F)(F)F)N1CCN(Cc2ccc(C(F)(F)F)cc2N2CCCC2CO)CC1 (stereo not drawn) [Example 71, 1,1,1,3,3,3-hexafluoropropan-2-yl 4-(2-(2-(hydroxymethyl)pyrrolidin-1-yl)-4-(trifluoromethyl)benzyl)piperazine-1-carboxylate]
< 25% | > 1000 nM | < 25% | > 1000 nM | > 75% | < 25% | > 75% | < 100 nM | < 25% | Cc1ccc(CN2CCN(C(=O)OC(C(F)(F)F)C(F)(F)F)CC2)c(N2CC[C@H](CF)C2)c1 [Example 53, 1,1,1,3,3,3-hexafluoropropan-2-yl (S)-4-(2-(3-(fluoromethyl)pyrrolidin-1-yl)-4-methylbenzyl)piperazine-1-carboxylate]
